This is an account of results in patent publication US11299458B2, “Crystalline compounds” (OTSUKA AMERICA PHARMACEUTICAL, INC., priority 2015, dated 2022).

Structures are written as SMILES. Values joined by “and” are separate entries in the source; they are usually repeats but may differ in a detail not shown here. Equal values may be shown once.

Holding throughout (format): physicochemical
A short description of data set [1]: Polymorph screen: crystallization, slurry, vapor stress and pH buffer experiments, XRPD result. The protocol: Antisolvent Precipitation: Solutions are prepared in various solvents and filtered through a 0.2-μm nylon filter into a vial. Antisolvent is then added until precipitation is observed. The resulting solids are isolated by vacuum filtration and analyzed.
Crash Cool (CC): Solutions are prepared in various solvents at an elevated temperature and filtered warm through a 0.2-μm nylon filter into a pre-cooled vial. The vial is placed in a (dry ice+isopropanol) cooling bath. Samples are placed into a freezer if no solids are observed to immediately precipitate. The resulting solids are isolated by vacuum filtration and analyzed.
Fast Evaporation (FE): Solutions are prepared in various solvents and sonicated between aliquot additions to assist in dissolution. Once a mixture reaches complete dissolution, as judged by visual observation, the solution is filtered through a 0.2-μm nylon filter. The filtered solution is allowed to evaporate at ambient conditions in an uncapped vial. Solutions are evaporated to dryness unless designated as partial evaporations. The solids that formed are isolated and analyzed.
Slow Cooling (SC): Solutions are prepared in various solvents at an elevated temperature. The solutions are filtered warm through a 0.2-μm nylon filter into a warm vial. The vial is capped and left on the hot plate, and the hot plate is turned off to allow the sample to cool slowly to ambient temperature. If no solids are present after cooling to ambient temperature, the sample is placed in a refrigerator and/or freezer for further cooling. Solids are collected by vacuum filtration and analyzed.
Slow Evaporation (SE): Solutions are prepared in various solvents and sonicated to assist in dissolution. Once a mixture reaches complete dissolution, as judged by visual observation, the solution is filtered through a 0.2-μm nylon filter. The filtered solution is allowed to evaporate at ambient conditions in a vial covered with aluminum foil perforated with pinholes. Solutions are evaporated to dryness unless designated as partial evaporations. The solids that form are isolated and analyzed.
Slurry Experiments: Suspensions are prepared by adding enough solids to a given solvent so that excess solids are present. The mixture is then agitated in a sealed vial at ambient temperature or an elevated temperature. After a given period of time, the solids are isolated by vacuum filtration and analyzed.
Vapor Diffusion (VD): Solutions are prepared in various solvents and filtered through a 0.2-μm nylon filter. The filtered solution is dispensed into a 1-dram vial, which is then placed inside a 20-mL vial containing antisolvent. The 1-dram vial is left uncapped and the 20-mL vial is capped to allow vapor diffusion to occur. The resulting solids are isolated and analyzed.
Vapor Stress (VS): A solid sample is placed into a 1-dram vial. The 1-dram vial is then placed into a 20-mL vial containing solvent. The 20-mL vial is capped and left at ambient conditions for a measured time period. Samples are analyzed after removal from the stress environment.
Crystalline Form A through Form F are prepared as follows by using Crystalline Form A obtained from Example 1 above. A variety of crystallization techniques are used, including evaporation, cooling, solvent/antisolvent precipitation, slurry, vapor stress, and vapor diffusion, as described above.
Crystalline Forms D, E, and F—Crystalline Form A is dissolved in pH adjusted buffered media. Undissolved solid or precipitate observed is analyzed by XRPD. Some experiments are conducted at elevated temperature to increase solubility, the undissolved solids are also analyzed by XRPD.
Crystalline Form A from Example 5 is used to make the following crystalline forms.

The nature of data set [2]: Solution calorimetry (SolCal), heats of solution in methanol. The following applies: methanol, 25° C., hydrochloride. On the procedure: For each test, two heats of solution are obtained—one calculated using a calibration preceding the sample analysis and one calculated using a calibration following the sample analysis. Clear solutions are observed after each test.
Solution calorimetry is performed using a Thermometric 2225 Precision Solution calorimeter, a semi-adiabatic calorimeter. Solution calorimeter System v.1.2 software is used. Samples are weighed into glass crushing ampoules and are sealed using silicone rubber plugs and hot wax. Experiments are carried out in 100 mL of methanol at 25° C. The measurement of the heats of solution of the samples is both preceded and followed by calibrations using an internal heater. The heats of solution are calculated using dynamic of calibration model.

Data set [3] can be described thus: Accelerated stress conditions (relative humidity stress), solid form by XRPD. The following applies: two weeks. The protocol: Relative Humidity Stress: Solids are stored at approximately 40° C./75% RH condition for a measured time period by placing the solids into a vial inside a sealed temperature/humidity chamber at the controlled condition. Samples are analyzed after removal from the stress environment.
Crystalline Forms A, B, and C are exposed to accelerated stress conditions for two weeks (Table 18 below). […] Crystalline Form C is metastable at this condition.
Experimental: Relative Humidity Stress
The following relative humidity jars (saturated salt solutions are used to generate desired relative humidity) are utilized: 75% RH (NaCl) and 56% RH (NaBr) (Nyqvist, H., Int. J. Pharm. Tech. &Prod. Mfr. 1983, 4 (2), 47-48).

The nature of data set [4]: Storage stability of solid form, XRPD after storage. On the procedure: Six scale-up attempts are conducted to prepare Crystalline Form C by cooling in isopropanol on approximately 50-150 mg scale (Table 11) and the solids tested by XRPD. At refrigerator temperature, precipitated solids yield Form B. Seeding with Form C after cooling in the refrigerator (no solids observed) and before placing in the freezer yield XRPD pattern of Form C with B peaks. Precipitation at freezer temperature results in solids with an XRPD pattern of Form C with A peaks. A solution placed in the freezer after cooling to room temperature with a lower concentration (7 mg/mL compared to 10 mg/mL) yields Form B. By crash cooling (ambient solution placed into dry ice/isopropanol), solids generated are a mixture of Forms B and A. The last attempt on an approximate 50-mg scale generates a mixture of Forms A and C.
An elliptically graded multilayer mirror is used to focus Cu Kα X-rays through the specimen and onto the detector. Prior to the analysis, a silicon specimen (NIST SRM 640e) is analyzed to verify the observed position of the Si 111 peak is consistent with the NIST-certified position. A specimen of the sample is sandwiched between 3-μm-thick films and analyzed in transmission geometry. A beam-stop, short antiscatter extension, and antiscatter knife edge are used to minimize the background generated by air. Soller slits for the incident and diffracted beams are used to minimize broadening from axial divergence. The diffraction pattern is collected using a scanning position-sensitive detector (X'Celerator) located 240 mm from the specimen and Data Collector software v. 2.2b. Data acquisition parameters are: Panalytical X-Pert Pro MPD PW3040 Pro, X-ray Tube: Cu (1.54059 Å), Voltage: 45 kV, Amperage: 40 mA, Scan Range: 1.00-39.99° 2θ, Step Size: 0.017° 2θ, Collection Time: 719 s, Scan Speed: 3.3°/min., Slit: DS: ½°, SS: null, Revolution Time: 1.0 s, Mode: Transmission.

As for `Cl.c1ccc2cc([C@]34CNC[C@H]3C4)ccc2c1` [Crystalline Form A, (1R,5S)-1-(naphthalen-2-yl)-3-azabicyclo[3.1.0]hexane hydrochloride], the “XRPD Result” value in data set [1] (1-propanol, CC (70° C. to dry ice/IPA), freezer/2 d) is “B + weak A”; in data set [1] (DCM, SE), “A + B”; in data set [1] (EtOH, CC (70° C. to dry ice/IPA), freezer/2 d), “C + weak A”; in data set [1] (EtOH, FE), “A + B”; in data set [1] (EtOH, SC (70° C. to RT, refrigerator/2 d, freezer/8 d)) it was “A + weak C”; in data set [1] (HFIPA/IPE, AS precipitation), “A + weak”. For the same molecule, the “XRPD Result” value is on record as “A + weak B” in data set [1] (HFIPA, SE); “C + possible” in data set [1] (IPA, CC (70° C. to dry ice/IPA), freezer/2 d, about 27 mg scale, 10 mg/mL); “A + weak B” in data set [1] (TFE, SE). The “average heat of solution” value in data set [2] (triplicate, endothermic) is given as 48.618 J/g; in data set [2] (average of three replicates) it was 48.618 J/g. Further, the “ΔH2 (heat of solution)” value in data set [2] (calculated using the calibration after breaking the sample vial, single replicates) was 49.905 J/g and 50.168 J/g and 49.217 J/g. Further, in data set [2] (calculated using the calibration before breaking the sample vial, single replicates), the “ΔH1 (heat of solution)” value was 48.077 J/g and 46.050 J/g and 48.293 J/g. Also, in data set [2] (mean of the two calibrations, single replicates), the “ΔHmean (heat of solution)” value is 48.991 J/g and 48.109 J/g and 48.755 J/g. In addition, the “solid form by XRPD after accelerated stress” value is reported as “remain unchanged” in data set [3] (30° C./56% RH) and “remain unchanged” in data set [3] (40° C./75% RH, hydrochloride). For the same molecule, the “solid form by XRPD after long-term storage” value in data set [4] (long-term storage, product of Example 5) is “consistent with Crystalline Form A”. The “XRPD Result after 22 days of ambient storage” value in data set [4] (solids from IPA CC (70° C. to dry ice/IPA), freezer/2 d, after 22 days of ambient storage) is “storage: C +”.
